Measured values published in paper PMC11876601 (Molecular Systems Biology, 2025).
Where two headings read alike, the source gives them in different places. Values belong to the molecule of their own block, whether it stands above or below them.

Key:
Assay in all cases: cells
[1] = test system: Colo-357; design: ATPlite luminescence viability of PDAC cell lines, 11-dose single-agent curves, 4-parameter fit; conditions: Homo sapiens, COLO357, 72 h, read-out: EC50 [nM]
Method: (§1) Afterward, small amounts were transferred to 384-well intermediate plates (Greiner Bio-One GmbH, Germany). […] For drug combination screening, 1000 to 5000 cells were seeded into 384-well plates (CulturPlate™, Perkin Elmer, MA, USA) using a Multidrop™ Combi Reagent Dispenser (Thermo Scientific, MA, USA) in 50 µl medium per well 24 h prior to drug treatment (seeding densities see Appendix Table S1). […] The final DMSO concentration in each well was 0.2%. […] Eight wells per plate without library drug served as negative controls, and sixteen wells per plate containing 5 µM Staurosporine served as positive controls. […] Next, we analyzed the drug sensitivity of immortalized duct cell line HPDE to detect effects unrelated to pancreatic cancer.

[2] = test system: Dan-G; design: ATPlite luminescence viability of PDAC cell lines, 11-dose single-agent curves, 4-parameter fit; conditions: 72 h, read-out: EC50 [nM]
Method: as §1

[3] = test system: MiaPaCa-2; design: Viability of PDAC cell lines, ATPlite luminescence, 11-dose single-agent curve fit; conditions: Homo sapiens, MIA PaCa-2, 72 h, read-out: EC50 [nM]
Outline: (§2)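 screening used cells plated at 1000 to 5000 per well one day before treatment. Final DMSO was 0.2%. Each plate held untreated negative-control wells and 5 µM staurosporine positive-control wells.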

[4] = test system: HPDE; design: Viability of PDAC cell lines, ATPlite luminescence, 11-dose single-agent curve fit; conditions: HPDE, 72 h, read-out: EC50 [nM]
Outline: as §2

[5] = test system: PANC-1; design: Viability of PDAC cell lines, ATPlite luminescence, 11-dose single-agent curve fit; conditions: Homo sapiens, PANC-1, 72 h, read-out: EC50 [nM]
Outline: as §2

[6] = test system: HuP-T4; design: Viability of PDAC cell lines, ATPlite luminescence, 11-dose single-agent curve fit; conditions: Homo sapiens, HuP-T4, 72 h, read-out: EC50 [nM]
Outline: as §2

[7] = test system: PaTu-8988-T; design: Viability of PDAC cell lines, ATPlite luminescence, 11-dose single-agent curve fit; conditions: Homo sapiens, PaTu 8988t, 72 h, read-out: EC50 [nM]
Outline: as §2

[8] = test system: PSN-1; design: Viability of PDAC cell lines, ATPlite luminescence, 11-dose single-agent curve fit; conditions: Homo sapiens, PSN1, 72 h, read-out: EC50 [nM]
Outline: as §2

[9] = test system: Capan-1; design: Viability of PDAC cell lines, ATPlite luminescence, 11-dose single-agent curve fit; conditions: Homo sapiens, CAPAN-1, 72 h, read-out: EC50 [nM]
Outline: as §2

[10] = test system: AsPC-1; design: Viability of PDAC cell lines, ATPlite luminescence, 11-dose single-agent curve fit; conditions: Homo sapiens, ASPC1, 72 h, read-out: EC50 [nM]
Outline: as §2

[11] = test system: Suit2-07; design: Viability of PDAC cell lines, ATPlite luminescence, 11-dose single-agent curve fit; conditions: 72 h, read-out: EC50 [nM]
Outline: as §2

[12] = test system: BxPC-3; design: Viability of PDAC cell lines, ATPlite luminescence, 11-dose single-agent curve fit; conditions: Homo sapiens, BXPC-3, 72 h, read-out: EC50 [nM]
Outline: as §2

[13] = test system: FAMPAC; design: Viability of PDAC cell lines, ATPlite luminescence, 11-dose single-agent curve fit; conditions: 72 h, read-out: EC50 [nM]
Outline: as §2

[14] = test system: PSN-1; design: ATPlite luminescence viability of PDAC cell lines, 11-dose single-agent curves, 4-parameter fit; conditions: Homo sapiens, PSN1, 72 h, read-out: EC50 [nM]
Method: as §1

[15] = test system: Suit2-07; design: ATPlite luminescence viability of PDAC cell lines, 11-dose single-agent curves, 4-parameter fit; conditions: 72 h, read-out: EC50 [nM]
Method: as §1

[16] = test system: BxPC-3; design: ATPlite luminescence viability of PDAC cell lines, 11-dose single-agent curves, 4-parameter fit; conditions: Homo sapiens, BXPC-3, 72 h, read-out: EC50 [nM]
Method: as §1

[17] = test system: FAMPAC; design: ATPlite luminescence viability of PDAC cell lines, 11-dose single-agent curves, 4-parameter fit; conditions: 72 h, read-out: EC50 [nM]
Method: as §1

[18] = test system: Colo-357; design: Viability of PDAC cell lines, ATPlite luminescence, 11-dose single-agent curve fit; conditions: Homo sapiens, COLO357, 72 h, read-out: EC50 [nM]
Outline: as §2

[19] = test system: Dan-G; design: Viability of PDAC cell lines, ATPlite luminescence, 11-dose single-agent curve fit; conditions: 72 h, read-out: EC50 [nM]
Outline: as §2

[20] = test system: MiaPaCa-2; design: ATPlite luminescence viability of PDAC cell lines, 11-dose single-agent curves, 4-parameter fit; conditions: Homo sapiens, MIA PaCa-2, 72 h, read-out: EC50 [nM]
Method: as §1

[21] = test system: PaTu-8988-T; design: ATPlite luminescence viability of PDAC cell lines, 11-dose single-agent curves, 4-parameter fit; conditions: Homo sapiens, PaTu 8988t, 72 h, read-out: EC50 [nM]
Method: as §1

SMILES: Cc1cc(Nc2ncnc3ccc(NC4=NC(C)(C)CO4)cc23)ccc1Oc1ccn2ncnc2c1 [Tucatinib]
- EC50 [1]: 240 nM
- EC50 [2]: 222 nM
- EC50 [3]: 7710 nM
- EC50 [4]: 3660 nM
- EC50 [5]: 5670 nM
- EC50 [6]: 292 nM
- EC50 [7]: > 10000 nM
- EC50 [8]: 24.4 nM
- EC50 [9]: 121 nM
- EC50 [10]: > 10000 nM
- EC50 [11]: > 10000 nM
- EC50 [12]: 1010 nM
- EC50 [13]: 7060 nM

SMILES: CC(C)(C)c1nc(-c2cccc(NS(=O)(=O)c3c(F)cccc3F)c2F)c(-c2ccnc(N)n2)s1 [Dabrafenib]
- EC50 [14]: 341 nM
- EC50 [15]: 883 nM
- EC50 [16]: 348 nM
- EC50 [17]: 428 nM
- EC50 [3]: 971 nM
- EC50 [4]: 197 nM
- EC50 [5]: 5600 nM
- EC50 [18]: 9480 nM
- EC50 [19]: 274 nM
- EC50 [6]: 1830 nM
- EC50 [7]: 749 nM
- EC50 [9]: 50.5 nM
- EC50 [10]: 975 nM

SMILES: O=C(c1cc(Cc2n[nH]c(=O)c3ccccc23)ccc1F)N1CCN(C(=O)C2CC2)CC1 [Olaparib]
- EC50 [2]: 3940 nM
- EC50 [17]: 8230 nM
- EC50 [3]: 5000 nM
- EC50 [4]: 1490 nM
- EC50 [5]: > 10000 nM
- EC50 [18]: 7820 nM
- EC50 [6]: 3200 nM
- EC50 [7]: 1870 nM
- EC50 [8]: > 10000 nM
- EC50 [9]: > 10000 nM
- EC50 [10]: 446 nM
- EC50 [11]: 9600 nM
- EC50 [12]: 3550 nM

SMILES: Cc1cc2cc(Oc3ccnc(Nc4cccc(CS(=O)(=O)NCCN(C)C)c4)n3)ccc2[nH]1 [Sulfatinib]
- EC50 [20]: 3080 nM
- EC50 [21]: > 10000 nM
- EC50 [4]: 5550 nM
- EC50 [5]: 7980 nM
- EC50 [18]: 6810 nM
- EC50 [19]: > 10000 nM
- EC50 [6]: 1900 nM
- EC50 [8]: 5780 nM
- EC50 [9]: 3530 nM
- EC50 [10]: > 10000 nM
- EC50 [11]: > 10000 nM
- EC50 [12]: 4560 nM
- EC50 [13]: > 10000 nM

SMILES: N#CCNC(=O)c1ccc(-c2ccnc(Nc3ccc(N4CCOCC4)cc3)n2)cc1 [Momelotinib]
- EC50 [20]: > 10000 nM
- EC50 [21]: > 10000 nM
- EC50 [14]: > 10000 nM
- EC50 [15]: 5780 nM
- EC50 [17]: > 10000 nM
- EC50 [4]: 8470 nM
- EC50 [5]: 8650 nM
- EC50 [18]: 953 nM
- EC50 [19]: 6780 nM
- EC50 [6]: 2670 nM
- EC50 [9]: 9140 nM
- EC50 [10]: 4110 nM

SMILES: Cn1cc(C2=C(c3cn(C4CCN(Cc5ccccn5)CC4)c4ccccc34)C(=O)NC2=O)c2ccccc21 [Enzastaurin]
- EC50 [14]: > 10000 nM
- EC50 [3]: > 10000 nM
- EC50 [4]: 9200 nM
- EC50 [5]: 4980 nM
- EC50 [18]: 109 nM
- EC50 [19]: 873 nM
- EC50 [6]: 2270 nM
- EC50 [7]: 5780 nM
- EC50 [9]: 401 nM
- EC50 [10]: 7970 nM
- EC50 [11]: > 10000 nM
- EC50 [12]: > 10000 nM
- EC50 [13]: > 10000 nM

These reach a lower EC50 [5]. Values come first.

- EC50 [20]: > 10000 nM
- EC50 [5]: 3550 nM
- EC50 [18]: 4380 nM
- EC50 [10]: > 10000 nM
- EC50 [12]: > 10000 nM
SMILES: COc1cc2nccc(Oc3ccc(NC(=O)C4(C(=O)Nc5ccc(F)cc5)CC4)cc3)c2cc1OC [Cabozantinib]
- EC50 [2]: > 10000 nM
- EC50 [21]: 4020 nM
- EC50 [4]: > 10000 nM
- EC50 [6]: 3810 nM
- EC50 [8]: > 10000 nM
- EC50 [9]: 6600 nM
- EC50 [11]: > 10000 nM
- EC50 [13]: > 10000 nM

- EC50 [1]: 3360 nM
- EC50 [3]: 8760 nM
- EC50 [5]: 3010 nM
- EC50 [10]: 2530 nM
- EC50 [12]: 3910 nM
SMILES: CC[C@H](Nc1ncnc2[nH]cnc12)c1nc2cccc(F)c2c(=O)n1-c1ccccc1 [Idelalisib]
- EC50 [2]: 2130 nM
- EC50 [4]: 9240 nM
- EC50 [6]: 754 nM
- EC50 [7]: 10000 nM
- EC50 [8]: 545 nM
- EC50 [9]: 9330 nM
- EC50 [11]: 5950 nM
- EC50 [13]: > 10000 nM

- EC50 [1]: 3560 nM
- EC50 [3]: 3140 nM
- EC50 [5]: 3760 nM
- EC50 [10]: 3000 nM
- EC50 [12]: > 10000 nM
SMILES: Cc1cc2c(F)c(Oc3ncnn4cc(OC[C@@H](C)OC(=O)[C@H](C)N)c(C)c34)ccc2[nH]1 [Brivanib alaninate]
- EC50 [4]: 3160 nM
- EC50 [19]: 3820 nM
- EC50 [6]: 2460 nM
- EC50 [7]: > 10000 nM
- EC50 [8]: 3990 nM
- EC50 [9]: > 10000 nM
- EC50 [11]: > 10000 nM
- EC50 [13]: > 10000 nM

- EC50 [3]: 2740 nM
- EC50 [5]: 20.4 nM
- EC50 [18]: 5.08 nM
- EC50 [10]: 596 nM
- EC50 [12]: 0.01 nM
SMILES: CNC(=O)c1c(C)oc2cc(Oc3ncnc4cc(OC)c(OC)cc34)ccc12 [Fruquintinib]
- EC50 [4]: 552 nM
- EC50 [19]: 1.05 nM
- EC50 [6]: 653 nM
- EC50 [7]: 1810 nM
- EC50 [8]: 5.57 nM
- EC50 [9]: 32.9 nM
- EC50 [11]: 0.05 nM
- EC50 [13]: 1660 nM
